{"source": "patent US7381401B2", "about": "“T cell anergy is reversed by active Ras and regulated by diacylglycerol kinase” (The University of Chicago, priority 2004, dated 2008)", "key": {"[1]": {"system": "anergic CAR Tg Th1 cells", "test": "IL-2 production by anergic CAR Tg Th1 cells (ELISA)", "format": "cell-based, mouse", "conditions": "stimulated with anti-CD3/anti-CD28 beads", "text": "Induction of T cell anergy. […] Adenoviral transduction of […] cells. […] T cell activation."}, "[2]": {"system": "anergic Th1 cells", "test": "IL-2 production by anergic Th1 clone pGL10 (ELISA)", "format": "cell-based, mouse", "text": "(§1) Induction of T cell anergy."}, "[3]": {"target": "DGKα (Homo sapiens, UniProt P23743)", "sequence (P23743 whole entry, species assumed)": "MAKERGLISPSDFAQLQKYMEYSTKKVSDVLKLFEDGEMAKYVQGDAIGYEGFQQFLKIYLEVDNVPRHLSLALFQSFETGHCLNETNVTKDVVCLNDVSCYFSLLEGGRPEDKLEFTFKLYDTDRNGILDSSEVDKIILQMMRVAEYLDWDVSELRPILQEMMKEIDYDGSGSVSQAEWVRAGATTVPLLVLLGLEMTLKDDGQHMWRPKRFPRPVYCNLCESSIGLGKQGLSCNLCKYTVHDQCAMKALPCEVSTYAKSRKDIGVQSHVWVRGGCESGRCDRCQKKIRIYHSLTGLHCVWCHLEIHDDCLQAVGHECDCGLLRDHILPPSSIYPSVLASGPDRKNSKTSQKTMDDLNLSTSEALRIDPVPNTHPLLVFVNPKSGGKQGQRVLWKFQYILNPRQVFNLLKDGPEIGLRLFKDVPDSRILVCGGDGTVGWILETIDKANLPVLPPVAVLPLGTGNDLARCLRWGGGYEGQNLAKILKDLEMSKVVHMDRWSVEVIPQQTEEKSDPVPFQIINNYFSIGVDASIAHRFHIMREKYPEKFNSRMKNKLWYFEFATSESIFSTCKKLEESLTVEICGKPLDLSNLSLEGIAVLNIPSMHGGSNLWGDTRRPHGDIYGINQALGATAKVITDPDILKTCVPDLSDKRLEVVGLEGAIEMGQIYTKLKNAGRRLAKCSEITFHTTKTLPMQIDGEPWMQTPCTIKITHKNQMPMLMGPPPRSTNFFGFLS", "conditions": "cited from earlier work"}, "[4]": {"system": "anergic Th1 cells", "test": "Toxicity of the DGK inhibitor to anergic Th1 cells", "format": "cell-based, mouse", "conditions": "higher concentrations (data not shown)", "text": "If increased DGK activity is contributing to diminished Ras activation and IL-2 production in the anergic state, then inhibition of this enzyme should result in increased IL-2 production by anergic cells. To explore this possibility, the pharmacologic inhibitor R59022 was employed (Jiang et al., 2000). […] Approximately 40% of this IL-2 production was recovered by stimulation with PMA+Ionomycin, arguing that that proportion was mediated by a proximal signaling defect."}, "[5]": {"system": "Egr2 mRNA", "test": "Semi-quantitative RT-PCR of Egr2 mRNA in pGL10 cells", "format": "cell-based, mouse", "conditions": "pGL10 cells treated with ionomycin", "method": "as §1\n(§2) RT-PCR. Total RNA was extracted using Trizol, and cDNA was generated using oligo-dT as a primer. PCR™ was done with titrated doses of cDNA using primers specific for the following genes: […]\n(§3) Between 36 and 39 cycles were performed at an annealing temperature of 55° C. Products were visualized on ethidium bromide-stained 1% agarose gels."}, "[6]": {"system": "DGK-ζ mRNA", "test": "Semi-quantitative RT-PCR of DGK-ζ mRNA in pGL10 cells", "format": "cell-based, mouse", "conditions": "pGL10 cells treated with ionomycin", "method": "as §1, §2, §3"}, "[7]": {"system": "CAR transgenic Th1 clones", "test": "IL-2 production by CAR transgenic Th1 clones overexpressing DGK isoforms", "format": "cell-based, mouse", "method": "Adenoviral vectors. The CA H-Ras mutant Ras61L cDNA was provided by Dr. F. Fitch (University of Chicago). Construction of recombinant adenoviral vectors was performed using a two-cosmid system protocol described by Wang et al. (2000). Briefly, a gene expression unit containing a human ubiquitin promoter and either HRas61L, GFP, DGKα, kinase-dead DGKα, DGKζ, or no cDNA was inserted into a left-end plasmid, pLEP. pLEPUb-Ras61L and the right-end-plasmid, pREP, containing the E-deleted adenovirus type 2 (Ad2) genome, were digested, ligated and resulting cosmids were packaged into lambda phages. The DGKα kinase-dead DGKα, and DGKζ inserts also have a myc epitope tag. Competent bacteria were transduced with lambda phages and double selection of growing colonies was performed on Amp/Tet plates. Recombinant adenoviruses were then generated by transfection of 293 cells with purified, linearized adenoviral vector DNA. High titer stock solutions were obtained by large-scale infection of 293 cells followed by cesium chloride purification of complete viral particles. Plaque forming units (pfu) of virus preparations were determined by TCID 50 method (AdEasy Vector Systems Manual, Quantum Biotechnologies, Canada). Working solutions of adenoviral vectors were diluted in storage buffer (Nyberg-Hoffman and Aguilar-Cordova, 1999), and stored at −80° C. until needed. […]"}}}
{"smiles": "Cc1nc2sccn2c(=O)c1CCN1CCC(=C(c2ccccc2)c2ccc(F)cc2)CC1", "note": "[R59022, 6-[2-(4-[(4-fluorophenyl)phenyl-methylene]-1-piperidinyl)ethyl]-7-methyl-5H-thiazolo[3,2-]pyrimidine-5-one]", "values": [{"measurement": "IL-2 production", "setting": "[1]", "value": "partially restored IL-2 production"}, {"measurement": "recovery of IL-2 production", "setting": "[2]; anergic Th1 clone pGL10 stimulated with anti-CD3+anti-CD28, increasing concentrations, 25 min pre-incubation, ELISA", "value": "significant recovery of IL-2 production in a dose-dependent fashion"}, {"measurement": "cytokine release by the inhibitor alone", "setting": "[2]; anergic cells, no anti-CD3/anti-CD28 stimulation (data not shown)", "value": "did not induce detectable cytokine release"}, {"measurement": "DGK isoform preference", "setting": "[3]", "value": "preferentially inhibits DGKα"}, {"measurement": "toxicity to the cells", "setting": "[4]", "value": "toxic to the cells"}]}
{"smiles": "C[C@H](CCC(=O)O)C[C@H](C)C[C@H](C)C(=O)/C=C(\\O)[C@H](C)C[C@H](C)C/C=C/[C@@H](C)[C@@H](O)[C@@H](C)[C@@H](O)C[C@@H]1CC[C@@](C)([C@H]2CC[C@@](C)([C@@H](C)O)O2)O1", "note": "[ionomycin]", "values": [{"measurement": "Egr2 mRNA", "setting": "[5]", "value": "only a minimal increase"}, {"measurement": "expression of DGK-ζ mRNA", "setting": "[6]", "value": "upregulated"}]}
{"smiles": "CCCCCCCCCCCCCC(=O)O[C@@H]1[C@@H](C)[C@@]2(O)[C@@H](C=C(CO)C[C@]3(O)C(=O)C(C)=C[C@@H]23)[C@@H]2C(C)(C)[C@]12OC(C)=O", "note": "[PMA]", "values": [{"measurement": "IL-2 production on addition of exogenous PMA", "setting": "[7]; cells transduced to express DGKα", "value": "restored IL-2 production"}, {"measurement": "IL-2 production on addition of exogenous PMA", "setting": "[7]; cells transduced to express DGKζ", "value": "restored IL-2 production"}]}
